Literature values as cited in patent US11691145B2, “Platform and method for multi-variable screening” (Wisconsin Alumni Research Foundation, priority 2018, dated 2023).

Tested on: bacterial pathogens (infection)
Conditions: phase 3 clinical trial

For CO/N=C(\C(=O)N[C@@H]1C(=O)N2C(C(=O)O)=C(COC(C)=O)CS[C@H]12)c1csc(N)n1 [cefotaxime], the “patients who responded to the antibiotic therapy” value (patients with a "resistant" antibiotic sensitivity test result) is given as 64% and the “patients who would respond to the antibiotic therapy” value (patients with a "sensitive" antibiotic sensitivity test result, best case scenario) is given as 93%.
